Measured values: patent US8518876B2, “Composition for long-acting peptide analogs” (Pharmaln Corporation, priority 2007, dated 2013)
Entries after “also recorded” stand apart in the source; their conditions may differ. Where a SMILES comes first, the peptide text is derived from it. Bridges are numbered along the chain shown (N, C = ends). The star is where a group is joined. Lauroyl = CCCCCCCCCCCC(=O)*

Legend:
[1] = test system: human umbilical chord artery endothelial cells (HUAEC); experiment: Ca-influx after vasopressin analog stimulation of HUAEC, samples pre-incubated in human serum; type: cell-based; design: key to Activity of Various Vasopressin Analogs, 0 h / Activity of Various Vasopressin Analogs, 1 h / Activity of Various Vasopressin Analogs, 2 h / Activity of Various Vasopressin Analogs, 4 h: “−” for no detectable activity; “+” to “+++” for slight to high activity; “+” to “+++” for slight to high activity; “+” to “+++” for slight to high activity
Source text: Ca-influx after vasopressin analog stimulation of human umbilical chord artery endothelial cells (HUAEC) was used to test the biological activity of the various vasopressin analogs. The material used were: 75 cm^2 tissue culture flasks, BD Bioscience, Bedford Mass. (catalogue number 137787) with 0.2 μm vented blue plug seal caps (catalogue number 353136); human umbilical artery endothelial cells (HUAEC), Lonza, Walkersville, Md. (catalogue number CC-2520); EGM-2 fully supplement medium, Lonza, Walkersville, Md. (catalogue number CC-3162); Fura-2 AM, Invitrogen/Molecular Probes, Carlsbad, Calif. (catalogue number F-1221) (Fura-2 AM is a high affinity, intracellular calcium indicator that is ratiometric and UV light-excitable; the acetoxymethyl (AM) ester form is useful for noninvasive intracellular loading as it is cell permeable. Once inside the cell the ester is clipped which renders the Fura-2 molecule cell impermeable and therefore trapped inside.); terlipressin derivatives custom made by Anaspec, San Jose Calif., according to inventors specifications; pooled human serum, Sigma, St. Louis, Mo. (catalogue number H4522); phosphate buffered saline (PBS), Fisher Scientific, Fair Lawn, N.J. (catalogue number BP399-500); trypsin-EDTA solution, 0.25%, Invitrogen/Gibco, Carlsbad, Calif. (catalogue number 25200-072); heat inactivated fetal bovine serum (FBS), Invitrogen/Gibco, Carlsbad, Calif. (catalogue number 10438-026); black polystyrene 96 well flat-bottom assay plates, Corning Inc., Corning, N.Y. (catalogue number 3916); Chameleon plate multilabel detection reader, Hidex, Turku, Finland, distributed by Bioscan, Washington, D.C.; dimethyl sulfoxide (DMSO), Fisher Scientific, Fair Lawn, N.J. (catalogue number D-136-1).
The methods used for tissue or cell culture are as follows: a vial of HUAEC (>0.5×10^6 cells) was thawed and seeded in two 75 cm^2 flasks with 15 ml EGM-2 medium each. Cells were grown over night and medium was changed. Media in the flasks were changed on a Monday, Wednesday, Friday schedule. Cells were split at approximately 80% confluency (using trypsin). Media were removed and the flasks were washed with 10 ml 1×PBS. The PBS was removed, 1.5 ml trypsin-EDTA solution was added and incubated for 5 min at 37° C. Three ml of FBS added and the cells were counted. The cells were centrifuged at 200×G for 5 min, resuspended in EGM-2 medium and distributed into new 75 cm2 flasks @ 3000-5000 cells per cm2.
To prepare for the Ca2+-influx assay, cells were distributed into one black 96 well plate @ 10^5 cells/well. Cells were allowed to adhere overnight and the medium was then removed. Fifty μg Fura-2 was dissolved in 50 μl DMSO and added to 10 ml PBS/2% FBS. The cells were stained with 20 μl of 5 μg/ml Fura-2 in PBS/2% FBS for 2 h, then 180 μl EGM-2 medium supplemented with CaCl2 and glucose was added (10 mM CaCl2 and 11.1 mM glucose final concentrations).
To prepare analogs for testing, 50 uM terlipressin (or derivative) stock solution in DMSO was prepared. […] (placed on ice after incubation).
To measure Ca-influx, Fura-2 fluorescence was measured for 4 repetitions per well at 340 nm ex/510 nm em and 420 nm ex/510 nm em (4 measurement before and 16 after injection of drug. At t=12 sec, 20 μl of terlipressin or derivative was injected as a 500 nM solution (or serum) for a final concentration of 50 nM per well. Fura-2 fluorescence was measured for […] per well at 340 nm ex/510 nm em and 420 nm ex/510 nm em (4 measurements before and 16 after injection of drug). The controls included injected human serum alone, and terlipressin or derivative dissolved in PBS as […]. All measurements were done in hexuplicate.
Data analysis was done using Graphpad Prism version 5.0 software (Graphpad software Inc, San Diego, Calif.). […]

[2] = Solubility in water of the synthesized peptide; type: physicochemical; conditions: in words

For CCCCCCCCCCCC(=O)NCC(=O)NCC(=O)NCC(=O)N[C@H]1CSSC[C@@H](C(=O)N2CCC[C@H]2C(=O)N[C@@H](CCCCN)C(=O)NCC(N)=O)NC(=O)[C@H](CC(N)=O)NC(=O)[C@H](CCC(N)=O)NC(=O)[C@H](Cc2ccccc2)NC(=O)[C@H](Cc2ccc(O)cc2)NC1=O [C12TerA, CH3(CH2)10CO-Gly-Gly-Gly-Cys-Tyr-Phe-Gln-Asn-Cys-Pro-Lys-Gly-NH2] (Lauroyl-GGGCYFQNCPKG-NH2; disulfide 4-9), the “Activity of Various Vasopressin Analogs, 0 h” value ([1]; 0 h pre-incubation in pooled human serum at 37° C. (serum present), Ca-influx in HUAEC, 50 nM per well) was “+++”, the “Activity of Various Vasopressin Analogs, 1 h” value ([1]; 1 h pre-incubation in pooled human serum at 37° C., Ca-influx in HUAEC, 50 nM per well) was “+++” and the “Activity of Various Vasopressin Analogs, 2 h” value ([1]; 2 h pre-incubation in pooled human serum at 37° C., Ca-influx in HUAEC, 50 nM per well) was “+++”. For the same compound, the “Activity of Various Vasopressin Analogs, 4 h” value ([1]; 4 h pre-incubation in pooled human serum at 37° C., Ca-influx in HUAEC, 50 nM per well) was “+++”, the “calcium influx after 2-hour incubation in human serum” value ([1]; FIG. 11, Fura-2 fluorescence, in words) was “able to induce calcium influx; also recorded: pronounced calcium influx” and the solubility in water [2] was “limited solubility in water”.
